Test: FRAP activity test and antioxidant evaluation test using rats
Type: in vivo, rats of Wistar strain
Conditions: male Wistar rats, oral, 100 mg/kg
Experimental: Male rats of Wistar strain (9 weeks age) were fasted for one night, a pine bark extract mentioned in Example 1 or vitamin C was compulsorily administered via oral route, and blood was collected from tail vein from time to time to prepare plasma samples. FRAP value of the plasma sample was measured by a method of Benzie (Benzie, I. F. F. and Strain, J. J., Anal. Biochem., 1996, Volume 239, pages 70 to 76) and its changes with a lapse of time were traced as an index for antioxidant activity in blood. The plasma sample (10 μL) was added to 990 μL of FRAP reagent containing 20 mM of FeCl3 followed by being allowed to stand at 37° C. for 4 minutes, and changes in absorbance at 593 nm were measured. The same operation was conducted using a solution containing a predetermined concentration of […] sample and, from the changes in absorbance, a calibration curve for FRAP values was prepared.

With `O=C1O[C@H]([C@@H](O)CO)C(O)=C1O` [vitamin C] the “FRAP value in blood” value was “an increase in the FRAP value was also observed”.

Source: US20070099853A1, “Agent for improving physiological motor functions” (SUNTORY LIMITED, priority 2003, published 2007)
